Measurements published in ChEMBL document CHEMBL1123526, “3-Hydroxy-3-methylglutaryl-coenzyme A reductase inhibitors. 4. Side chain ester derivatives of mevinolin” (J Med Chem, 1986).

Target: T1, 3-hydroxy-3-methylglutaryl-coenzyme A reductase (Rattus norvegicus, UniProt P51639)
T1 sequence (P51639 whole entry): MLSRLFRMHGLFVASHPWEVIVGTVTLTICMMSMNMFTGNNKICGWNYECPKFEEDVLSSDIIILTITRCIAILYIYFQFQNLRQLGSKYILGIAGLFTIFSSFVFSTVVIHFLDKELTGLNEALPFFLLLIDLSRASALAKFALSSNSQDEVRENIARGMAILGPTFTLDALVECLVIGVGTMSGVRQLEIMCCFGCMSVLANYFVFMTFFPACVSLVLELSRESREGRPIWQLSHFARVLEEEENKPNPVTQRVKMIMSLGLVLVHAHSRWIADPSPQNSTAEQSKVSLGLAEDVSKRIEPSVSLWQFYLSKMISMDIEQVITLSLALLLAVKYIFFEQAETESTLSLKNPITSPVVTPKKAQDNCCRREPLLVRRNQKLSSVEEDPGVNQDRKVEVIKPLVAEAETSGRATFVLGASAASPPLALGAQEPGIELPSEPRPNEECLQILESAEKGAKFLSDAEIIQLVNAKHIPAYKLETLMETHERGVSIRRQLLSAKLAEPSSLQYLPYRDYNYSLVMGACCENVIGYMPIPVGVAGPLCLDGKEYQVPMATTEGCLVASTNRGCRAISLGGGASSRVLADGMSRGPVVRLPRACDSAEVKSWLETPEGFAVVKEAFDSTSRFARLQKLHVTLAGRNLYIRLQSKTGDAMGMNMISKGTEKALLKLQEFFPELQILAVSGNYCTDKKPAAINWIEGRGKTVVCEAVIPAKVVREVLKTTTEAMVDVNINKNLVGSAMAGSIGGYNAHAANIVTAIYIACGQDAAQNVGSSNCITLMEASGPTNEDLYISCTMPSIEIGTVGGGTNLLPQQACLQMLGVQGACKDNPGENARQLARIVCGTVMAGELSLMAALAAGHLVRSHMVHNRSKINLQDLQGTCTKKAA
Assay: Inhibition of solubilized, purified rat liver HMG-CoA reductase.

Structure (SMILES) | IC50 [nM]
C[C@H]1C=C2C=C[C@H](C)[C@H](CC[C@@H]3C[C@@H](O)CC(=O)O3)[C@H]2[C@@H](OC(=O)Cc2ccccc2)C1 | 19
CC[C@H](C)C(=O)O[C@H]1C[C@@H](C)C=C2C=C[C@H](C)[C@H](CC[C@@H]3C[C@@H](O)CC(=O)O3)C21 (some centres undefined) | 2.2
CCC(C)(CC)C(=O)O[C@H]1C[C@@H](C)C=C2C=C[C@H](C)[C@H](CC[C@@H]3C[C@@H](O)CC(=O)O3)C21 (some centres undefined) | 1.4
CC(C)=CC(=O)O[C@H]1C[C@@H](C)C=C2C=C[C@H](C)[C@H](CC[C@@H]3C[C@@H](O)CC(=O)O3)C21 (some centres undefined) | 27.3
C[C@H]1C=C2C=C[C@H](C)[C@H](CC[C@@H]3C[C@@H](O)CC(=O)O3)C2[C@@H](OC(=O)C23CC4CC(CC(C4)C2)C3)C1 (some centres undefined) | 3.8
C[C@H]1C=C2C=C[C@H](C)[C@H](CC[C@@H]3C[C@@H](O)CC(=O)O3)C2[C@@H](OC(=O)Oc2ccccc2)C1 (some centres undefined) | 83
C[C@H]1C=C2C=C[C@H](C)[C@H](CC[C@@H]3C[C@@H](O)CC(=O)O3)C2[C@@H](OC(=O)c2ccc(F)cc2)C1 (some centres undefined) | 37
CC(C)CC(=O)O[C@H]1C[C@@H](C)C=C2C=C[C@H](C)[C@H](CC[C@@H]3C[C@@H](O)CC(=O)O3)C21 (some centres undefined) | 5.4
C[C@H]1C=C2C=C[C@H](C)[C@H](CC[C@@H]3C[C@@H](O)CC(=O)O3)C2[C@@H](OC(=O)C(C)(C)C)C1 (some centres undefined) | 2.7
CC[C@@H](C)C(=O)O[C@H]1C[C@@H](C)C=C2C=C[C@H](C)[C@H](CC[C@@H]3C[C@@H](O)CC(=O)O3)C21 (some centres undefined) | 2.2
CC(CC(=O)O[C@H]1C[C@@H](C)C=C2C=C[C@H](C)[C@H](CC[C@@H]3C[C@@H](O)CC(=O)O3)C21)C(F)(F)F (some centres undefined) | 3.5
C[C@H]1C=C2C=C[C@H](C)[C@H](CC[C@@H]3C[C@@H](O)CC(=O)O3)C2[C@@H](OC(=O)C2CC2)C1 (some centres undefined) | 38.6
C=C(C)CC(=O)O[C@H]1C[C@@H](C)C=C2C=C[C@H](C)[C@H](CC[C@@H]3C[C@@H](O)CC(=O)O3)C21 (some centres undefined) | 2.9
CCCC(CC)(CC)C(=O)O[C@H]1C[C@@H](C)C=C2C=C[C@H](C)[C@H](CC[C@@H]3C[C@@H](O)CC(=O)O3)C21 (some centres undefined) | 1.9
CCC(CC)(CC)C(=O)O[C@H]1C[C@@H](C)C=C2C=C[C@H](C)[C@H](CC[C@@H]3C[C@@H](O)CC(=O)O3)C21 (some centres undefined) | 1.4
CC(=O)O[C@H]1C[C@@H](C)C=C2C=C[C@H](C)[C@H](CC[C@@H]3C[C@@H](O)CC(=O)O3)C21 (some centres undefined) | 269
CCCCC(=O)O[C@H]1C[C@@H](C)C=C2C=C[C@H](C)[C@H](CC[C@@H]3C[C@@H](O)CC(=O)O3)C21 (some centres undefined) | 8.7
CCCCCCCCCC(=O)O[C@H]1C[C@@H](C)C=C2C=C[C@H](C)[C@H](CC[C@@H]3C[C@@H](O)CC(=O)O3)C21 (some centres undefined) | 295
CC(C)C(=O)O[C@H]1C[C@@H](C)C=C2C=C[C@H](C)[C@H](CC[C@@H]3C[C@@H](O)CC(=O)O3)C21 (some centres undefined) | 7.7
